Test results from patent US3941800A, “N-benzyltriazole compounds” (Bayer Aktiengesellschaft, priority 1969, dated 1976).

How the values were obtained:
Format in all cases: in vivo
linseed = test: Growth inhibition/linseed test; details: 72 h, root length after 3 days vs control, dark, 25°C, pH 6
Method: (§1) Solvent: 40 parts by weight acetone
(§2) Emulsifier: 0.25 parts by weight alkylaryl polyglycol ether
(§3) To produce a suitable preparation of active compound, 1 part by weight of active compound was mixed with the stated amount of solvent which contained the stated amount of emulsifier, and the concentrate was diluted with a disodium hydrogen phosphate-potassium dihydrogen phosphate buffer solution (pH 6) to the desired concentration.
Batches of 25 linseeds were laid out on two filter papers in a Petri dish. 10 ml. of the preparation of active compound were pipetted into each dish. Germination of the seeds took place in the dark at 25°C.
After 3 days, the length of the roots was determined and the growth inhibition compared with the control plant was expressed as a percentage. 100% denoted the standstill of growth, and 0% denoted a growth corresponding to that of the untreated plant.
The active compounds, the concentrations of the active compounds in ppm (=mg/kg) and results can be seen from the following Table.

oat grains = test: Growth inhibition/oat grains; details: 72 h, shoot length after 3 days vs control, dark, 25°C, pH 6
Method: as §1, §2, §3
Batches of 25 oat grains were laid out on two filter papers in a Petri dish. 10 ml. of the preparation of active compound were pipetted into each dish. Germination of the seeds took place in the dark at 25°C.
After 3 days, the length of the shoot was determined and the growth inhibition compared with the control plant was expressed as a percentage. 100% denoted the standstill of growth, and 0% denoted a growth corresponding to that of the untreated plant.
The active compounds, concentrations of the active compounds in ppm (=mg/kg) and the results can be seen from the following Table.

tomato plants = test: Growth inhibition/tomato plants; details: Solanum lycopersicum, 192 h; 500 ppm spray on plants 10 cm high; after 8 days vs untreated control
Method: as §1, §2
as §3, with “compounds,” for “compound,”
Tomato plants of a height of 10 cm were sprayed with a preparation which contained 500 ppm of active compound.
After 8 days, the percentage inhibition of the treated plants compared with the untreated control plant was determined. With 100% inhibition, no growth was present; with 0% inhibition, the growth corresponded to that of the control plant.
The active compounds, concentration of active compound in ppm (=mg/kg) and the results can be seen from the following Table.

[1] = system: beans (Phaseolus vulgaris); test: Growth inhibition/bean plants; details: 500 ppm spray on beans 10 cm high; length after 8 days; water control 26 cm
Method: as §1, §2
as §3, with “concentrations.” for “concentration.”
Beans (Phaseolus vulgaris) 10 cm high were sprayed with preparations which contained 500 ppm of active compound.
After 8 days, the length of the treated plants compared with the untreated control plant was determined.
The active compounds, concentrations of active compound in ppm (=mg/kg) and the results can be seen from the following Table.

apple seedlings = test: Growth inhibition/apple seedlings; details: 168 h; 500 ppm spray on seedlings about 2 cm high; after 7 days vs untreated control
Method: as §1, §2, §3
Apple seedlings were, at a height of about 2 cm, sprayed with a preparation which contained 500 ppm of active compound.
After 7 days, the percentage inhibition of the treated plants compared with the untreated control plant was determined. With 100% inhibition, no growth was present; with 0% inhibition, the growth corresponded to that of the control plant.
The active compounds, the concentrations of the active compounds in ppm (=mg/kg) and the results can be seen from the following Table.

## Cc1cc(C(c2ccccc2)(c2ccc(Cl)cc2)n2cncn2)no1 (stereo not shown) [Compound 2, (4-chloro-phenyl)-phenyl-(5-methyl-isoxazol-3-yl)-(1,2,4-triazol-1-yl)-methane]
linseed
  inhibition at 50 ppm: 55%
  inhibition at 250 ppm: 85%
Oat grains
  inhibition at 50 ppm: 55%
  inhibition at 250 ppm: 95%
Tomato plants
  inhibition at 500 ppm: 88%
[1]
  Length in cm with a concentration of active compound of 500 ppm: 10.0 cm

## O=c1ccc(=O)[nH][nH]1 [maleic acid hydrazide, reference compound]
linseed
  inhibition at 50 ppm: 36%
  inhibition at 250 ppm: 50%
Oat grains
  inhibition at 50 ppm: 20%
  inhibition at 250 ppm: 40%
Tomato plants
  inhibition at 500 ppm: 33%
[1]
  Length in cm with a concentration of active compound of 500 ppm: 12 cm

## Cn1ccnc1C(c1ccccc1)(c1ccc(Cl)cc1)n1cncn1 (stereo not shown) [Compound 6, (4-chloro-phenyl)-phenyl-(1-methyl-imidazol-2-yl)-(1,2,4-triazol-1-yl)-methane]
Oat grains
  inhibition at 50 ppm: 25%
  inhibition at 250 ppm: 70%

## Cc1cc(C(c2ccccc2)(c2ccc(F)cc2)n2cncn2)no1 (stereo not shown) [Compound 1, (4-fluoro-phenyl)-phenyl-(5-methyl-isoxazol-3-yl)-(1,2,4-triazol-1-yl)-methane]
linseed
  inhibition at 50 ppm: 85%
  inhibition at 250 ppm: 100%
Oat grains
  inhibition at 50 ppm: 97%
  inhibition at 250 ppm: 100%
Apple seedlings
  inhibition at 500 ppm: 50%
Tomato plants
  inhibition at 500 ppm: 81%
[1]
  Length in cm with a concentration of active compound of 500 ppm: 10.5 cm

## Cc1cccc(C(c2ccccc2)(c2nccn2C)n2cncn2)c1 (stereo not shown) [Compound 3, (3-methyl-phenyl)-phenyl-(1-methyl-imidazol-2-yl)-(1,2,4-triazol-1-yl)-methane]
linseed
  inhibition at 50 ppm: 85%
  inhibition at 250 ppm: 100%
Tomato plants
  inhibition at 500 ppm: 60%

## CN(C)NC(=O)CCC(=O)O [succinic acid 2,2-dimethylhydrazide, reference compound]
linseed
  inhibition at 50 ppm: 12%
  inhibition at 250 ppm: 15%
Oat grains
  inhibition at 50 ppm: 22%
  inhibition at 250 ppm: 37%
Apple seedlings
  inhibition at 500 ppm: 23%
Tomato plants
  inhibition at 500 ppm: 20%

## Cn1ccnc1C(c1ccccc1)(c1ccc(-c2ccccc2)cc1)n1cncn1 (stereo not shown) [Compound 8, (4-phenyl-phenyl)-phenyl(1-methyl-imidazol-2-yl)-(1,2,4-triazol-1-yl)-methane]
[1]
  Length in cm with a concentration of active compound of 500 ppm: 11.5 cm

## Cn1ccnc1C(c1ccccc1)(c1ccc(C(C)(C)C)cc1)n1cncn1 (stereo not shown) [Compound 7, (4-tert.-butyl-phenyl)-phenyl(1-methyl-imidazol-2-yl)-(1,2,4-triazol-1-yl)-methane]
Oat grains
  inhibition at 50 ppm: 25%
  inhibition at 250 ppm: 62%

## Cc1cc(C(c2ccccc2)(c2ccccc2)n2cncn2)no1 [Compound 4, bis-phenyl-(5-methyl-isoxazol-3-yl)-(1,2,4-triazol-1-yl)-methane]
Oat grains
  inhibition at 50 ppm: 65%
  inhibition at 250 ppm: 75%
Apple seedlings
  inhibition at 500 ppm: 43%
Tomato plants
  inhibition at 500 ppm: 80%

## C[N+](C)(C)CCCl [(2-chloroethyl)-trimethyl-ammonium chloride, reference compound]
linseed
  inhibition at 50 ppm: 20%
  inhibition at 250 ppm: 30%
Oat grains
  inhibition at 50 ppm: 22%
  inhibition at 250 ppm: 31%
Apple seedlings
  inhibition at 500 ppm: 25%
Tomato plants
  inhibition at 500 ppm: 25%
